In one assay the target is T1, STAT5a SH2 domain (Homo sapiens, UniProt P42229).
T1 construct: His; made in house
T1 sequence (P42229 1-794): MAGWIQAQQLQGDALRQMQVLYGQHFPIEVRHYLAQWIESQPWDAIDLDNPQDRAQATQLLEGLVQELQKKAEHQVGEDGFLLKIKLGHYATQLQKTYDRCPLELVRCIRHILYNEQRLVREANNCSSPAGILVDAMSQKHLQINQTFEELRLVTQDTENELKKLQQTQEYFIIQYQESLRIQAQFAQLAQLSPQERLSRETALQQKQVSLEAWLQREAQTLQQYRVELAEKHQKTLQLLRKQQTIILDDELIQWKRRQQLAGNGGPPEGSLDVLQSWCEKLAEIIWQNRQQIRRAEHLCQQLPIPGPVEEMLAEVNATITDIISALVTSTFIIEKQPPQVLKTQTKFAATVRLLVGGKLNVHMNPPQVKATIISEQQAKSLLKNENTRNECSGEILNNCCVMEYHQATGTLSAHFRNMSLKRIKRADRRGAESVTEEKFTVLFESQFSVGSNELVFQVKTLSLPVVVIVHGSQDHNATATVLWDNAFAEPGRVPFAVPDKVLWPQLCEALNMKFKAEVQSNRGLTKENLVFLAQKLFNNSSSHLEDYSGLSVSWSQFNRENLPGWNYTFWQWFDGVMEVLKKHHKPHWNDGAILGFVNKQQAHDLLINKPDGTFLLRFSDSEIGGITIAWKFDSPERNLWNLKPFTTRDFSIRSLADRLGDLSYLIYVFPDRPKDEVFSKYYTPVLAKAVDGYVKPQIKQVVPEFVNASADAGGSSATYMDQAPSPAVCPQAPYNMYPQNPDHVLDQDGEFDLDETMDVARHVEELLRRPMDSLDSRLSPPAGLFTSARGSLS
Briefly: FP-based competitive binding assay, wild-type STAT5a. The protocol: (§1) Fluorescence polarization assays
(§2) The ability of test compounds to displace 5-carboxyfluorescein-GY(PO3H2)LVLDKW (final concentration: 10 nM) from the SH2 domain of STAT5a/b proteins was analyzed. Proteins […]
(§3) was applied in dilution series comprising the following concentrations: 0.024 – 200 µM […]
(§4) and 0.146 – 600 µM (STAT5b Arg566Glu), respectively. The assays were performed in buffer containing 10 mM Tris, 50 mM NaCl, 1 mM DTT, 1 mM EDTA and 0.1% (v/v) NP-40. Fosfosal was dissolved in DMSO. STAT5a/b proteins and fosfosal were incubated at room temperature for 1 h before adding peptide. Samples were transferred to 384-well microtiter plates and fluorescence polarization was read after a further 1 h incubation time. All measurements were performed in triplicate (n=3), except for STAT5b (n=6) and STAT5a Trp566Arg (n=4). Percent binding was calculated based on a logarithmic curve fit using OriginPro 8G software. IC50 values were converted to Ki values using the published equation.[4] […]
(§5) [4] Z. Nikolovska-Coleska, R. Wang, X. Fang, H. Pan, Y. Tomita, P. Li, P. P. Roller, K.
(§6) Krajewski, N. G. Saito, J. A. Stuckey, S. Wang, Anal. Biochem. 2004, 332, 261-273.

Another assay has as its target T2, STAT5b Arg566Trp (Homo sapiens, UniProt P51692, R566W).
T2 construct: His; made in house
T2 sequence (P51692 1-787 R566W): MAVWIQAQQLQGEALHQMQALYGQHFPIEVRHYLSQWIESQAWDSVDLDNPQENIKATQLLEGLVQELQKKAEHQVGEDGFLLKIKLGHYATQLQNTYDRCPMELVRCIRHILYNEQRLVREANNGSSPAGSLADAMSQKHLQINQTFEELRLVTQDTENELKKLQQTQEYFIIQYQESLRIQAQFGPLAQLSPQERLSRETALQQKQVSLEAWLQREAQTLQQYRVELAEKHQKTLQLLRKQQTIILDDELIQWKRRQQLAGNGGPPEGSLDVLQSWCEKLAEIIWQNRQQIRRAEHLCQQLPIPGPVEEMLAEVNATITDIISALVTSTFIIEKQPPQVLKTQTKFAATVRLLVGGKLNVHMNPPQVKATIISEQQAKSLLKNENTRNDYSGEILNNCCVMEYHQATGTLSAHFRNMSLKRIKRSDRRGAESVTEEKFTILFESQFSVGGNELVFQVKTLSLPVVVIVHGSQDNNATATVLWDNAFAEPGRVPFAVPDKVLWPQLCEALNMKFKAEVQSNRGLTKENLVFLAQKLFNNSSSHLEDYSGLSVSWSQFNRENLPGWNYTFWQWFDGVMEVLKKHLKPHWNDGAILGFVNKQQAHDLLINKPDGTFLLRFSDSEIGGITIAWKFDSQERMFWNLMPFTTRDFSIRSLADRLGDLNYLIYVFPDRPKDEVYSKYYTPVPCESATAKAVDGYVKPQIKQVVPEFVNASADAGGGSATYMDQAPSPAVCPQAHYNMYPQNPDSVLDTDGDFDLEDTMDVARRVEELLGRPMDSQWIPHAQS
Briefly: FP-based competitive binding assay, STAT5b Arg566Trp. The protocol: as §1, §2, §3, §4, §5, §6

Assay [1] deals with T3, STAT5b-6M (Gln636Pro/Met639Asn/Phe640Leu/Met644Lys/Asn664Ser/Tyr679Phe) (Homo sapiens, UniProt P51692, F640L/M639N/M644K/N664S/Q636P/Y679F).
T3 construct: His; made in house
T3 sequence (P51692 1-787 Q636P/M639N/F640L/M644K/N664S/Y679F): T2 sequence (P51692 1-787 R566W) with W566R, Q636P, M639N, F640L, M644K, N664S, Y679F
Briefly: FP-based competitive binding assay, STAT5b-6M. The protocol: as §1, §2, §3, §4, §5, §6

SMILES strings stand for the structures. Numbering of substitutions follows the chain as printed.

As usually defined, the Kd is the equilibrium constant for the complex coming apart. The IC50 is the midpoint of a concentration-inhibition curve. Higher therefore signals weaker potency in that assay. Broadly, the Ki is a dissociation constant, usually derived from enzyme kinetics or from competition with a known ligand. In general, inhibition refers to the percentage by which the read-out fell short of the control. A higher inhibition goes with strong suppression.

Turning to `CC(C)C[C@H](NC(=O)[C@H](Cc1ccc(OP(=O)(O)O)cc1)NC(=O)CNC(=O)c1ccc2c(c1)C(=O)OC21c2ccc(O)cc2Oc2cc(O)ccc21)C(=O)N[C@H](C(=O)N[C@@H](CC(C)C)C(=O)N[C@@H](CC(=O)O)C(=O)N[C@@H](CCCCN)C(=O)N[C@@H](Cc1c[nH]c2ccccc12)C(=O)O)C(C)C` [5-carboxyfluorescein-GY(PO3H2)LVLDKW], the dissociation constant (Kd) turned out to be 0.147 µM on STAT5a SH2 domain, 0.289 µM on STAT5b Arg566Trp and 0.085 µM in assay [1].

For `O=C(O)c1ccccc1OP(=O)(O)O` [fosfosal, O‐phosphorylated salicylic acid], the IC50 at STAT5a SH2 domain (wild-type STAT5a) turned out to be 299 ± 17 µM; in assay [1] (STAT5b-6M), 21.3 ± 1.2 µM. Moreover, the Ki on STAT5a SH2 domain (wild-type STAT5a, Ki calculated from IC50 with published equation) is 148 ± 9 µM; in assay [1] (STAT5b-6M, Ki calculated from IC50) it was 10.7 ± 0.6 µM. This compound showed an inhibition at 600 µM on STAT5b Arg566Trp (STAT5b Arg566Trp, 600 μM, the highest concentration tested) of 24 ± 2%. The “increase of activity against STAT5b-6M compared to wild type STAT5b” value in assay [1] (ratio of Ki values) was about 3 fold.

The values above are taken from article PMC7496286, “The Selectivity of Fosfosal for STAT5b over STAT5a is Mediated by Arg566 in the Linker Domain” (Chembiochem, 2020).
